Test results published in publication PMC3150642 (Journal of medicinal chemistry, 2011).

Legend:
12-LOX in platelets = target: T1, 12-LOX in platelets (Homo sapiens, UniProt P18054); details: 100 μM inhibitor, three separate experiments
T1 sequence (P18054 1-663): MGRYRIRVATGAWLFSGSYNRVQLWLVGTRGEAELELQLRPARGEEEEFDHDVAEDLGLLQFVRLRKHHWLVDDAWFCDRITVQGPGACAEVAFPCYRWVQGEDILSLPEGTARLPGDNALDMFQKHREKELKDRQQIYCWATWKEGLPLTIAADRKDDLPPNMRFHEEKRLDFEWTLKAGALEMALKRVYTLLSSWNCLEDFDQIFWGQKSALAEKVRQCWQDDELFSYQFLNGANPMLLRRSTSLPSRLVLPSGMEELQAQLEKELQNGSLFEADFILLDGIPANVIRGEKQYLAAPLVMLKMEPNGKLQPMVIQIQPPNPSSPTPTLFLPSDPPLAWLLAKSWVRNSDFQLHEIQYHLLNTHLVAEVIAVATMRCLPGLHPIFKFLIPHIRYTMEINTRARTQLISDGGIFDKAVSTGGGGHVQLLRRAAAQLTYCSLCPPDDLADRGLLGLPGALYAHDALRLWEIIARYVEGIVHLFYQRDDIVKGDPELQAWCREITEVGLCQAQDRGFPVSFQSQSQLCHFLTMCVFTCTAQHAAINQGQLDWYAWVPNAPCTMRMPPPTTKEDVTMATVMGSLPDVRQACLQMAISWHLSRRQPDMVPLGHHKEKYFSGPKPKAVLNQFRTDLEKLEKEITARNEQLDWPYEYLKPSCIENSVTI

DPPH Antioxidant Test = details: 5 μM test reagent, 500 μM DPPH
[1] = target: T2, 12-LOX in primary human islets (Homo sapiens, UniProt P18054); assay: Inhibition of 12-HETE Production in Human Donor Islets; format: cell-based; details: 10 μM, islets of two type 2 diabetic donors, AA + A23187
T2 sequence (P18054 1-663): T1 sequence (P18054 1-663)

[2] = target: T3, Human platelet 12-lipoxygenase (12-LOX) (Homo sapiens, UniProt P18054); assay: Lipoxygenase UV-Vis-based manual assay, 12-LOX; format: biochemical; details: Triton X-100 from 0.005% to 0.02%
T3 sequence (P18054 1-663): T1 sequence (P18054 1-663)

SMILES | inhibition of PAR1-AP-mediated 12-HETE production (12-LOX in platelets) | reduction of DPPH (DPPH Antioxidant Test) | inhibition of stimulated 12-HETE production [1] [%] | change in IC50 with increasing Triton X-100 (aggregation test) [2]
CCC(=O)NC(c1cccs1)c1cc([N+](=O)[O-])c2cccnc2c1O (centres unmarked) [Compound 1, N-((8-hydroxy-5-nitroquinolin-7-yl)(thiophen-2-yl)methyl)propionamide] | significant inhibition | no reduction of DPPH was observed | 74 | 
CC(=O)NC(c1cccs1)c1cc(Cl)c2cccnc2c1O (centres unmarked) [Compound 3, N-((5-chloro-8-hydroxyquinolin-7-yl)(thiophen-2-yl)methyl)acetamide] |  |  |  | negligible changes in the IC50
CC(Cc1ccc(O)c(O)c1)C(C)Cc1ccc(O)c(O)c1 (centres unmarked) [NDGA, Nordihydroguaiaretic acid, reference compound] |  | Stoichiometric reduction of DPPH |  | 
